≈ marks a conversion by molar mass, not a printed value.
Columns and labels:
P. acnes [1] = assay: Agar dilution method: growth of P. acnes and MIC, compounds tested singly; type: cell-based, Propionibacterium acnes; parameters: key to Growth Index (+++, ++, +, −) Plate 1 / Growth Index (+++, ++, +, −) Plate 2 / Growth Index (+++, ++, +, −) Plate 3 / Growth Index (+++, ++, +, −) Avg: +++: confluent growth (comparable to control); ++: less confluent growth; +: marked reduction in growth to multiple tiny, single colonies; −: no growth present; details: for MIC: Cutibacterium acnes, compound alone, MIC = concentration with marked reduction (+) of growth, read-out: MIC (mg/mL) as per P-11-0007 or P-11-0008 Addendum A
Protocol: (§1) Several compounds including fatty acids such as DGLA, 15-OHEPA, and 15-HETrE were tested to determine their capacity to inhibit the growth of P. acnes. In an exemplary method, an agar dilution method was used to determine the minimum inhibitory concentration (MIC) of each tested compound. Briefly, the agar dilution method involved preparing a series of concentrations of each compound (e.g., nicotinamide, benzoyl peroxide, adapalene, metronidazole, DGLA, 15-OHEPA, and 15-HETrE) in a Reinforced Clostridial Agar (RCA) media that facilitates growth of P. acnes under anaerobic conditions. An inoculum of P. acnes was prepared by incubation of P. acnes for approximately seven days at 35-37° C. to achieve a ≧1.0 OD600 inoculum of P. acnes in RCM broth. A portion of this inoculum was then added to the surface of each plate as a 10 μL spot and incubated at 35-37° C. for 72 hours or more. Growth of P. acnes was then observed and compared to control plates in which no compound has been added, and positive inhibition plates prepared with erythromycin. […] The growth of P. acnes in the presence of nicotinamide, benzoyl peroxide, adapalene, metronidazole, DGLA, 15-OHEPA, and 15-HETrE was determined with varying concentrations of the compound (see, Table 2). Next, the MIC was determined as the concentration at which a marked reduction (+) occurs in the appearance of growth on the test plate (as per Clinical and Laboratory Standards Institute M11-A7).

P. acnes [2] = assay: Agar dilution method: growth of P. acnes and MIC, fatty acid compounds in combination with other compounds; type: cell-based, Propionibacterium acnes; details: for MIC (mg/mL) with 0.05 mg/mL 15-HETrE spike / MIC (mg/mL) with 0.1 mg/mL 15-OHEPA spike: itself an inhibitory concentration
Protocol: as §1, with “M11-A7). The compounds tested singly in Example 1 were tested in combination with one another to determine the capacity of the combination to inhibit the growth of P. acnes. In an exemplary method, the MIC was determined for each of the combination as described in Example 1. Briefly, test combinations included DGLA with nicotinamide, benzoyl peroxide, adapalene, or metronidazole; 15-HETrE with nicotinamide, benzoyl peroxide, adapalene, or metronidazole; and 15-OHEPA with nicotinamide, benzoyl peroxide, adapalene, or metronidazole. The tables below show the growth of P. acnes in the presence of 0.4 or 1.0 mg/mL DGLA with varying concentrations of nicotinamide, benzoyl peroxide, adapalene, or metronidazole (Table 3); the growth of P. acnes in the presence of 0.01 or 0.05 mg/mL 15-HETrE with varying concentrations of nicotinamide, benzoyl peroxide, adapalene, or metronidazole (Table 5); and the growth of P. acnes in the presence of 0.5 or 0.1 mg/mL 15-OHEPA with varying concentrations of nicotinamide, benzoyl peroxide, adapalene, or metronidazole (Table 7).” for “M11-A7).”

Structure (SMILES): Cc1ncc([N+](=O)[O-])n1CCO [Metronidazole]
- MIC (P. acnes [1]): > 1 mg/mL
- Growth Index (+++, ++, +, −) Avg (P. acnes [1]; compound at 0.2 mg/mL in agar): +++
- Growth Index (+++, ++, +, −) Plate 1 (P. acnes [1]; compound at 0.2 mg/mL in agar): +++
- Growth Index (+++, ++, +, −) Plate 2 (P. acnes [1]; compound at 0.2 mg/mL in agar): +++
- Growth Index (+++, ++, +, −) Plate 3 (P. acnes [1]; compound at 0.2 mg/mL in agar): +++
- Growth Index (+++, ++, +, −) Avg (P. acnes [1]; compound at 0.4 mg/mL in agar): +++
- Growth Index (+++, ++, +, −) Plate 1 (P. acnes [1]; compound at 0.4 mg/mL in agar): +++
- Growth Index (+++, ++, +, −) Plate 2 (P. acnes [1]; compound at 0.4 mg/mL in agar): +++
- Growth Index (+++, ++, +, −) Plate 3 (P. acnes [1]; compound at 0.4 mg/mL in agar): +++
- Growth Index (+++, ++, +, −) Avg (P. acnes [1]; compound at 0.6 mg/mL in agar): +++
- Growth Index (+++, ++, +, −) Plate 1 (P. acnes [1]; compound at 0.6 mg/mL in agar): +++
- Growth Index (+++, ++, +, −) Plate 2 (P. acnes [1]; compound at 0.6 mg/mL in agar): +++
- Growth Index (+++, ++, +, −) Plate 3 (P. acnes [1]; compound at 0.6 mg/mL in agar): +++
- Growth Index (+++, ++, +, −) Avg (P. acnes [1]; compound at 0.8 mg/mL in agar): +++
- Growth Index (+++, ++, +, −) Plate 1 (P. acnes [1]; compound at 0.8 mg/mL in agar): +++
- Growth Index (+++, ++, +, −) Plate 2 (P. acnes [1]; compound at 0.8 mg/mL in agar): +++
- Growth Index (+++, ++, +, −) Plate 3 (P. acnes [1]; compound at 0.8 mg/mL in agar): +++
- Growth Index (+++, ++, +, −) Avg (P. acnes [1]; compound at 1.0 mg/mL in agar): +++
- Growth Index (+++, ++, +, −) Plate 1 (P. acnes [1]; compound at 1.0 mg/mL in agar): +++
- Growth Index (+++, ++, +, −) Plate 2 (P. acnes [1]; compound at 1.0 mg/mL in agar): ++
- Growth Index (+++, ++, +, −) Plate 3 (P. acnes [1]; compound at 1.0 mg/mL in agar): +++
- MIC (mg/mL) with 0.01 mg/mL 15-HETrE spike (P. acnes [2]; 0.01 mg/mL 15-HETrE spike): >1 mg/mL
- MIC (mg/mL) with 0.05 mg/mL 15-HETrE spike (P. acnes [2]): <0.2 mg/mL
- MIC (mg/mL) with 0.05 mg/mL 15-OHEPA spike (P. acnes [2]; 0.05 mg/mL 15-OHEPA spike): >1 mg/mL
- MIC (mg/mL) with 0.1 mg/mL 15-OHEPA spike (P. acnes [2]): <0.2 mg/mL
- MIC (mg/mL) with 0.4 mg/mL dGLA spike (P. acnes [2]; 0.4 mg/mL dGLA spike, dGLA supplied by Sigma, cat# E4504): >1 mg/mL
- MIC (mg/mL) with 1.0 mg/mL dGLA spike (P. acnes [2]; 1.0 mg/mL dGLA spike, dGLA supplied by Cayman, cat# 90230): >1 mg/mL
- growth of P. acnes in combination with 15-HETrE compared with 15-HETrE alone (P. acnes [2]): did not reduce the growth of P. Acnes below that of 15-HETrE used alone
- growth of P. acnes in combination with 15-OHEPA compared with 15-OHEPA alone (P. acnes [2]; in combination with 15-OHEPA): did not reduce the growth of P. Acnes below that of 15 OHEPA used alone
- growth of P. acnes in combination with DGLA compared with DGLA alone (P. acnes [2]; in combination with DGLA): did not reduce the growth of P. Acnes below that of DGLA used alone

Structure (SMILES): O=C(OOC(=O)c1ccccc1)c1ccccc1 [Benzoyl Peroxide, benzoyl peroxide]
- MIC (P. acnes [1]): 0.6 to 0.8 mg/mL (≈ 2.48 to 3.3 mM)
- Growth Index (+++, ++, +, −) Avg (P. acnes [1]; compound at 0.2 mg/mL in agar): +++
- Growth Index (+++, ++, +, −) Plate 1 (P. acnes [1]; compound at 0.2 mg/mL in agar): +++
- Growth Index (+++, ++, +, −) Plate 2 (P. acnes [1]; compound at 0.2 mg/mL in agar): +++
- Growth Index (+++, ++, +, −) Plate 3 (P. acnes [1]; compound at 0.2 mg/mL in agar): +++
- Growth Index (+++, ++, +, −) Avg (P. acnes [1]; compound at 0.4 mg/mL in agar): +++
- Growth Index (+++, ++, +, −) Plate 1 (P. acnes [1]; compound at 0.4 mg/mL in agar): +++
- Growth Index (+++, ++, +, −) Plate 2 (P. acnes [1]; compound at 0.4 mg/mL in agar): +++
- Growth Index (+++, ++, +, −) Plate 3 (P. acnes [1]; compound at 0.4 mg/mL in agar): +++
- Growth Index (+++, ++, +, −) Avg (P. acnes [1]; compound at 0.6 mg/mL in agar): ++
- Growth Index (+++, ++, +, −) Plate 1 (P. acnes [1]; compound at 0.6 mg/mL in agar): ++
- Growth Index (+++, ++, +, −) Plate 2 (P. acnes [1]; compound at 0.6 mg/mL in agar): +++
- Growth Index (+++, ++, +, −) Plate 3 (P. acnes [1]; compound at 0.6 mg/mL in agar): ++
- Growth Index (+++, ++, +, −) Avg (P. acnes [1]; compound at 0.8 mg/mL in agar): +
- Growth Index (+++, ++, +, −) Plate 1 (P. acnes [1]; compound at 0.8 mg/mL in agar): +
- Growth Index (+++, ++, +, −) Plate 2 (P. acnes [1]; compound at 0.8 mg/mL in agar): +
- Growth Index (+++, ++, +, −) Plate 3 (P. acnes [1]; compound at 0.8 mg/mL in agar): +
- MIC (mg/mL) with 0.05 mg/mL 15-HETrE spike (P. acnes [2]): <0.2 mg/mL
- MIC (mg/mL) with 0.1 mg/mL 15-OHEPA spike (P. acnes [2]): <0.2 mg/mL
- growth of P. acnes in combination with 15-HETrE compared with 15-HETrE alone (P. acnes [2]): did not reduce the growth of P. Acnes below that of 15-HETrE used alone

From patent US8293790B2, “Pharmaceutical compositions comprising DGLA and benzoyl peroxide and methods of use thereof” (Dignity Sciences Limited, priority 2011, dated 2012)
